ChEMBL document CHEMBL1201862, “PubChem BioAssay data set” (2004)
The source made the active and inactive calls.

Assays:
[1] = target: T1, Aminopeptidase N (Plasmodium falciparum FcB1/Columbia, UniProt O96935); experiment: malaria alanyl aminopeptidase activity blockers – biochemical, fluorogenic H-Leu-NHMec substrate, 1536-well (AID 1445); parameters: species or system Plasmodium falciparum 3D7, 3D7
T1 sequence (O96935 whole entry): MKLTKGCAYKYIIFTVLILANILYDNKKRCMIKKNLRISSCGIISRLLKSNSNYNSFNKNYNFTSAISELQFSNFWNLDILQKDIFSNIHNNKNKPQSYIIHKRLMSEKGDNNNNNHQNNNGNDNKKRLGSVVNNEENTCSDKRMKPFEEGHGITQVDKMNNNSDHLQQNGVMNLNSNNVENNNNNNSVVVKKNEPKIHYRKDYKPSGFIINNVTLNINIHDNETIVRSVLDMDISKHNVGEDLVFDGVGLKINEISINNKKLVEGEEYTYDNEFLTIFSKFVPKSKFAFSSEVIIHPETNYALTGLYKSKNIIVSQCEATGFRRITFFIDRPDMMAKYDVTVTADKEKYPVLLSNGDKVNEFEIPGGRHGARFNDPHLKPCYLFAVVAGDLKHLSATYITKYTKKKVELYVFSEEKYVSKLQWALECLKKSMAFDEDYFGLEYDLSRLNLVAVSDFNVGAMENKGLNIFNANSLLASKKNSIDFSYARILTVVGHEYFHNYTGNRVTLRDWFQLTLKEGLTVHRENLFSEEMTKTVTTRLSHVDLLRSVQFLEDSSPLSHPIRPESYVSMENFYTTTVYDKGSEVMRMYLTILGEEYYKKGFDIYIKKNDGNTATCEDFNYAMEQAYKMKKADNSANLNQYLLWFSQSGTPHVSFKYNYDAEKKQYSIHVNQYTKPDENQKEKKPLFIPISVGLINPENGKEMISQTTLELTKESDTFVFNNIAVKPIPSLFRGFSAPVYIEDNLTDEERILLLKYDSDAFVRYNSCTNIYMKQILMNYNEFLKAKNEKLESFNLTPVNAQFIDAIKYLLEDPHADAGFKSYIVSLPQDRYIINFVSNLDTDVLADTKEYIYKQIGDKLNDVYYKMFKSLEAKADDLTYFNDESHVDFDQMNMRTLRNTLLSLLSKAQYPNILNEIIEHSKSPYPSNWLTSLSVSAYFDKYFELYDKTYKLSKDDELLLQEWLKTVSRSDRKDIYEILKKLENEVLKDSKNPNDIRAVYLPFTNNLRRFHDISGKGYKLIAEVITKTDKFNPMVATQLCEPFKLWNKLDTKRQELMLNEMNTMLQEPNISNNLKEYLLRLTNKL

[2] = target: T2, Voltage-gated N-type calcium channel alpha-1B subunit/Amyloid beta A4 precursor protein-binding family A member 1 (Homo sapiens, UniProt Q00975+Q02410); type: protein assay
[3] = target: T2, Voltage-gated N-type calcium channel alpha-1B subunit/Amyloid beta A4 precursor protein-binding family A member 1; type: protein assay; remark: listed apart in the source
[4] = target: T3, Acyl-homoserine lactone acylase PvdQ (Pseudomonas aeruginosa (strain LESB58), UniProt Q9I194); experiment: PvdQ acylase enzyme activity blockers – biochemical, fluorescence, plate reader and imaging, cherry-picks, dose response (AID 493231)
T3 sequence (Q9I194 whole entry): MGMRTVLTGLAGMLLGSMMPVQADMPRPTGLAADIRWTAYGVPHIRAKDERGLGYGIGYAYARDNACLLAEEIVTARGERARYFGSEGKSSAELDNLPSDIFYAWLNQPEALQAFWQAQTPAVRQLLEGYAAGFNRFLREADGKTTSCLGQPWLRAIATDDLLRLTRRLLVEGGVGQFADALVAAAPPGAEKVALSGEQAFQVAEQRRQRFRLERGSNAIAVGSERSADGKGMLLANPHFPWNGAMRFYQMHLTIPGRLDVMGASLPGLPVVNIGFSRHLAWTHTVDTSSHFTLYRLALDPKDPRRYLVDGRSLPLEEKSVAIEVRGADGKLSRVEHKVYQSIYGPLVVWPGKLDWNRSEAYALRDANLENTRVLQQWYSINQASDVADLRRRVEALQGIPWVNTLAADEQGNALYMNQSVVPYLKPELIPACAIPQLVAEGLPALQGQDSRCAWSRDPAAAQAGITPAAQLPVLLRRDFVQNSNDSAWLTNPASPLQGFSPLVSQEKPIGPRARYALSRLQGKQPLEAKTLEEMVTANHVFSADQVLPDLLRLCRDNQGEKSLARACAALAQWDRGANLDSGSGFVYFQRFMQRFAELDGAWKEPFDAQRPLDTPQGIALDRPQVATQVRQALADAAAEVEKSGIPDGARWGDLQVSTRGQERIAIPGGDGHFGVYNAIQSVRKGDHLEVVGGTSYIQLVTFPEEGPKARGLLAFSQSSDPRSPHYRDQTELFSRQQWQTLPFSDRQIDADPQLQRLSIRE

[5] = target: T4, CAAX prenyl protease 2 (Saccharomyces cerevisiae S288c, UniProt Q03530); type: biochemical
T4 sequence (Q03530 whole entry): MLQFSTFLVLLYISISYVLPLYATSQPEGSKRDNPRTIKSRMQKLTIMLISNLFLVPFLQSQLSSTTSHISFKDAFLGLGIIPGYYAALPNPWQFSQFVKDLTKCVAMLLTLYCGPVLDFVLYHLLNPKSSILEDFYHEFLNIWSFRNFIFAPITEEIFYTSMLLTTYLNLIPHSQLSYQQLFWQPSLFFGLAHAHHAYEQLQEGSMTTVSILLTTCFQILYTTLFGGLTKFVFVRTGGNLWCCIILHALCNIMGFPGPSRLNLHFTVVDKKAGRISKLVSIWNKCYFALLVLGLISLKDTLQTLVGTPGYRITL

[6] = target: T5, C-C chemokine receptor type 6 (Homo sapiens, UniProt P51684); experiment: antagonism of CCR6 beta-arrestin recruitment – cell-based, luminescent beta-arrestin readout, dose response (AID 504728); type: functional
T5 sequence (P51684 whole entry): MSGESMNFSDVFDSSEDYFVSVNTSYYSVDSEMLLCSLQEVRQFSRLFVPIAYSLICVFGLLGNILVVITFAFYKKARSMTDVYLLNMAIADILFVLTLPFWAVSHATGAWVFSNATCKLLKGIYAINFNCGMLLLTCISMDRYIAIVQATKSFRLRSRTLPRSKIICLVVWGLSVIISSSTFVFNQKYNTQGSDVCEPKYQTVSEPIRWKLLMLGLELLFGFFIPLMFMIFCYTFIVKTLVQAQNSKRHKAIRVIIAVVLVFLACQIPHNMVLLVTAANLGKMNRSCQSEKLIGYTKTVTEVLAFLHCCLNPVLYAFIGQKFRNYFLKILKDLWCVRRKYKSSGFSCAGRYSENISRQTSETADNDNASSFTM

[7] = target: Beta-galactosidase (Escherichia coli, UniProt Q8VNN2); experiment: detection-enzyme interference by beta-gal modulators – biochemical, E. coli enzyme, set 3, artefact control for CCR6 antagonist project, dose response (AID 504712); type: functional
[8] = target: Heat shock protein HSP 90-alpha (Homo sapiens, UniProt P07900); type: functional, organism-based
[9] = target: T6, Corticotropin-releasing factor receptor 2/Corticotropin-releasing factor-binding protein (Homo sapiens, UniProt P24387+Q13324); experiment: Dose Response confirmation of uHTS hits for small molecule antagonists of the CRF-binding protein and CRF-R2 receptor complex.; type: functional; details: read-out: IC50_Mean
T6 sequence (Q13324 whole entry): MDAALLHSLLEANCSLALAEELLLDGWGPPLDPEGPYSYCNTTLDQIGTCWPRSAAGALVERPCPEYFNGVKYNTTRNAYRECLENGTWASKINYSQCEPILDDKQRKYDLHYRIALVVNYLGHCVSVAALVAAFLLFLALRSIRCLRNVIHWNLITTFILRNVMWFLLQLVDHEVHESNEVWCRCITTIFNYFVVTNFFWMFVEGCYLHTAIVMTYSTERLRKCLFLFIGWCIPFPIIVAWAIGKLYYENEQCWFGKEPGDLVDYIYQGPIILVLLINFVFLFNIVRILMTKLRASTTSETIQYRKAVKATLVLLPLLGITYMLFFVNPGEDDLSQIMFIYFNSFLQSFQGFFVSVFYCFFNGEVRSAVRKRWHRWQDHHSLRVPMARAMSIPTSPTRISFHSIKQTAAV
T6 sequence (P24387 whole entry): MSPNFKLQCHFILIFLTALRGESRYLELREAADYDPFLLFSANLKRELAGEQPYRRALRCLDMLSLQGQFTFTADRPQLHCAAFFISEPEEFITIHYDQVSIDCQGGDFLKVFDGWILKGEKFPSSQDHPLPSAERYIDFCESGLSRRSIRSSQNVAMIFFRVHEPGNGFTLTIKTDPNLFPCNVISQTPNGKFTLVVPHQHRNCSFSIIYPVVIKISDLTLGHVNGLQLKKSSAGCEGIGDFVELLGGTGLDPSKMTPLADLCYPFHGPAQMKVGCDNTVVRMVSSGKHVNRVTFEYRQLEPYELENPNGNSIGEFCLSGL

[10] = target: T6, Corticotropin-releasing factor receptor 2/Corticotropin-releasing factor-binding protein; experiment: activators of CRF receptor 2 with binding protein – uHTS hits, confirmation (AID 602473); type: functional; details: read-out: EC50_Mean
[11] = target: T7, Hexokinase (Trypanosoma brucei, UniProt Q38C41); experiment: Confirmation assay for inhibitors of Trypanosoma brucei hexokinase 1-Analogue-first series. [Related pubchem assays (depositor defined):AID1430, AID1632, AID2516, AID2560, AID2579, AID2600, AID449725, AID492951]; type: functional
T7 sequence (Q38C41 whole entry): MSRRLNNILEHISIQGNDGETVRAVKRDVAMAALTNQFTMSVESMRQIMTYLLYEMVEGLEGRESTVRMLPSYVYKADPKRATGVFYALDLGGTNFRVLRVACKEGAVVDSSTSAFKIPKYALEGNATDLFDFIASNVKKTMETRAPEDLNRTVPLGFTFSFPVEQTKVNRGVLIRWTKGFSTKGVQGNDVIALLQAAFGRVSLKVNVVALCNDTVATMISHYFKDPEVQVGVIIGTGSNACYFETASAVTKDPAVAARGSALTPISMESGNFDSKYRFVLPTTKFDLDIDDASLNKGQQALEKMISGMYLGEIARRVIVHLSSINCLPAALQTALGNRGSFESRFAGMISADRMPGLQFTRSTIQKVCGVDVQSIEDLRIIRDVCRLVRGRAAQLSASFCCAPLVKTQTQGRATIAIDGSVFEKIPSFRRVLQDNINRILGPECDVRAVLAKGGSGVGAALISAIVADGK

[12] = reduction of Shn3 3'UTR-driven luciferase in osteoblasts – cell-based, Clone20 osteoblasts, firefly luciferase, cherry-picked, dose response (AID 624132); type: functional;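 further: firefly luciferase luminescence from reporter carrying the Shn3 3'UTR in osteoblasts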
[13] = loss of viability in HepG2 cells – cell-based, CellTiter-Glo, cherry-picked, cytotoxicity control for Shn3 inhibitor project, dose response (AID 624134); type: functional
[14] = non-specific 3'UTR reporter inhibition in Clone20-Shn3RL – cell-based, Renilla luciferase, cherry-picked, counter-screen for Shn3 inhibitor project, dose response (AID 624133); type: functional
[15] = target: Photoreceptor-specific nuclear receptor (Homo sapiens, UniProt Q9Y5X4); type: functional, cell-based;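 further: CHO-S cells with Gal4-NCOR and VP16-NR2E3 two-hybrid luciferase reporter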
[16] = target: Paired box protein Pax-8 (Homo sapiens, UniProt Q06710); experiment: PAX8 transcriptional activity inhibition in RMG-I – RMG-I cells, luciferase, cherry-pick, dose response (AID 687027); type: functional, cell-based;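 further: luciferase reporter driven by Pax8 target thyroperoxidase promoter measured by SteadyGlo luminescence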
[17] = A549 cell cytotoxicity, dose response, cytotoxicity control, plate reader, cherry-pick, antagonist series (AID 743412); type: functional, cell-based
[18] = toxicity toward HepG2 liver cells – cell-based, plate reader, cherry-pick, antagonist series, cytotoxicity control, dose response (AID 743416); type: functional
[19] = blockers of bursicon-stimulated LGR2 cAMP reporter – cell-based, HEK293, CRE-luciferase reporter, cherry pick, set 2, dose response (AID 743343); type: functional;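 further: transfected cells were stimulated with diluted bursicon conditioned medium after compound addition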
[20] = blockade of melanocortin 4 receptor signaling – cell-based, plate reader, cherry pick, counter-screen for LGR2 antagonist project, dose response (AID 743444); type: functional;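 further: transfected HEK 293 cells stimulated with alpha-MSH peptide; potency of inhibitors of the alpha-MSH evoked signal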
[21] = viability loss in HEK293 cells – cell-based, plate reader, cherry-picked samples, cytotoxicity control, dose response (AID 743446); type: functional

T2 sequence (Q00975 whole entry): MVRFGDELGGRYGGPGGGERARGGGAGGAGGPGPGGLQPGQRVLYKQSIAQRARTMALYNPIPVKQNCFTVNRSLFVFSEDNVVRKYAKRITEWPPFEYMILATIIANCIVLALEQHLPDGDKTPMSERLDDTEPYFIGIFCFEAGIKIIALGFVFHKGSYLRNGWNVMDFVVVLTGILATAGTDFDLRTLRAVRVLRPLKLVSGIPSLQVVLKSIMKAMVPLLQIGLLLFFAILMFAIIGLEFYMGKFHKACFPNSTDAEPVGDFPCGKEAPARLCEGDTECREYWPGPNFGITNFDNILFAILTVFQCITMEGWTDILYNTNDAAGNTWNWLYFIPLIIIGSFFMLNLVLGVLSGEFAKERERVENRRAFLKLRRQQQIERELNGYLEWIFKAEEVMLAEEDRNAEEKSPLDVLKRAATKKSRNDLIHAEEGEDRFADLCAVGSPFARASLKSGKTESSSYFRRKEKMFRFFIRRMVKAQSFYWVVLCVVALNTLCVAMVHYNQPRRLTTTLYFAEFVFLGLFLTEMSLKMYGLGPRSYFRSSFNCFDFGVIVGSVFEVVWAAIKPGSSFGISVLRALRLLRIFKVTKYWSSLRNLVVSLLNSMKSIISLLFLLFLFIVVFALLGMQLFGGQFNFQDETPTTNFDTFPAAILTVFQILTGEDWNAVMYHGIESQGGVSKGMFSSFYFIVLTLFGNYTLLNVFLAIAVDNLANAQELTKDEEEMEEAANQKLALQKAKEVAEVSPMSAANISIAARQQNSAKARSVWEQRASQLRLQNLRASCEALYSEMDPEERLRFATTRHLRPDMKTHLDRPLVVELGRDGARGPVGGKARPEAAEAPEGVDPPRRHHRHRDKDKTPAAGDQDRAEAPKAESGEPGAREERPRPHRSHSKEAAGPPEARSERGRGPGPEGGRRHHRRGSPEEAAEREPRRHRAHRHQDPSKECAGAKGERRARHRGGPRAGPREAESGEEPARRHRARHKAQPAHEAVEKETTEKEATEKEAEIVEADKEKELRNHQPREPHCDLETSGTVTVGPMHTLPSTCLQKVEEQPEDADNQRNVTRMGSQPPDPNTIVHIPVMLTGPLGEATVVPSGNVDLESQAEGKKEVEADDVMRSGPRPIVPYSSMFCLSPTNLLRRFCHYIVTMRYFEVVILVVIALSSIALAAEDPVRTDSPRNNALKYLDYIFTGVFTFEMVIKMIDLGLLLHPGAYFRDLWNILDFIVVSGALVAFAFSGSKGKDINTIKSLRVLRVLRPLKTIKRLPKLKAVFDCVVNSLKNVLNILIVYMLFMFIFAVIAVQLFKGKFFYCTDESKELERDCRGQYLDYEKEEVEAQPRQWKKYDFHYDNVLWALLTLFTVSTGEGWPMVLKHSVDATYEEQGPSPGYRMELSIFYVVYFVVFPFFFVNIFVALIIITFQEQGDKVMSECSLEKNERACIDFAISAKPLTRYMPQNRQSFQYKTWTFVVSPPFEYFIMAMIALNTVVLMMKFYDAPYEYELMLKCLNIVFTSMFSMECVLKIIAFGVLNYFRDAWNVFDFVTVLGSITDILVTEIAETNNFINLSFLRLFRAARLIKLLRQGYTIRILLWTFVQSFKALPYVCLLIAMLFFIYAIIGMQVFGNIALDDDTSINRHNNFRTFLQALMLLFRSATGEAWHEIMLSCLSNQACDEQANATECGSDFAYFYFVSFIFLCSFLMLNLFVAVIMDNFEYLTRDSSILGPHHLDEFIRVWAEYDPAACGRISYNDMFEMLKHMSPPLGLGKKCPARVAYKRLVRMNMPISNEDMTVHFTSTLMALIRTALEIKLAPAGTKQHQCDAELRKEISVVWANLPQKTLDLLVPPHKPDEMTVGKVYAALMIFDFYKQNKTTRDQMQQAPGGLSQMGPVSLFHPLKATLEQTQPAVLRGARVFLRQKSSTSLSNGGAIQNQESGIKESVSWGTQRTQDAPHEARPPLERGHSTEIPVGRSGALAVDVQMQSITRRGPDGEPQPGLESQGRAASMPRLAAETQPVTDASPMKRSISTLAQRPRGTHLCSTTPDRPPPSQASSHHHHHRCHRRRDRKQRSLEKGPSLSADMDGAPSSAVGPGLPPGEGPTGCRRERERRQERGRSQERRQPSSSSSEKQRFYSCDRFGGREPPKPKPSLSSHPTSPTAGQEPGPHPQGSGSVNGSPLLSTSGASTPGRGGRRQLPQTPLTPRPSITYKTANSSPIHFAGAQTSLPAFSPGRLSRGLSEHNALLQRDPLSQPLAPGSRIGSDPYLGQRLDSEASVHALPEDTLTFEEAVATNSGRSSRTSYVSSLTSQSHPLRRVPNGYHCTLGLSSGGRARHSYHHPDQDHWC
T2 sequence (Q02410 whole entry): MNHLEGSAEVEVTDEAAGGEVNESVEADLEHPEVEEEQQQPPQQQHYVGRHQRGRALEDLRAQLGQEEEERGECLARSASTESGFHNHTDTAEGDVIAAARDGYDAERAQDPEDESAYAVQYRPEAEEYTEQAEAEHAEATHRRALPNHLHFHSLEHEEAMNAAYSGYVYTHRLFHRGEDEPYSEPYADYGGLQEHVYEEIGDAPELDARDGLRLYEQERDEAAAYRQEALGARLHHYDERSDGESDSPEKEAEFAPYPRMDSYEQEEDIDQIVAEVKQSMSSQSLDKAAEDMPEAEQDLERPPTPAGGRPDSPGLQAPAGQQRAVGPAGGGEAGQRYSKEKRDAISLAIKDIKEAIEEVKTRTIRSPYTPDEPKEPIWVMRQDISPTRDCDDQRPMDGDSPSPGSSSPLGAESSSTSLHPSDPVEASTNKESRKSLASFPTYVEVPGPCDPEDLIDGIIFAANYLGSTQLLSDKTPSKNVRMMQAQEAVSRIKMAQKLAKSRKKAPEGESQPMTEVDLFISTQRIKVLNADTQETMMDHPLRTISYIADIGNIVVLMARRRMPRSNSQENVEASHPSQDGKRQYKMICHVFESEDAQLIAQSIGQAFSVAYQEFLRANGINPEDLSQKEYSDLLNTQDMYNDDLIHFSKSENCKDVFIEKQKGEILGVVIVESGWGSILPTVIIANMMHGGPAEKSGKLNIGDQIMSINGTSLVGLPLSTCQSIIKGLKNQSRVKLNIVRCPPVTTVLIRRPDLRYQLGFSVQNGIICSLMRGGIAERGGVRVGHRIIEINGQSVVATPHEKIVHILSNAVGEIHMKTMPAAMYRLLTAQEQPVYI
Sequence of Beta-galactosidase (Q8VNN2 whole entry): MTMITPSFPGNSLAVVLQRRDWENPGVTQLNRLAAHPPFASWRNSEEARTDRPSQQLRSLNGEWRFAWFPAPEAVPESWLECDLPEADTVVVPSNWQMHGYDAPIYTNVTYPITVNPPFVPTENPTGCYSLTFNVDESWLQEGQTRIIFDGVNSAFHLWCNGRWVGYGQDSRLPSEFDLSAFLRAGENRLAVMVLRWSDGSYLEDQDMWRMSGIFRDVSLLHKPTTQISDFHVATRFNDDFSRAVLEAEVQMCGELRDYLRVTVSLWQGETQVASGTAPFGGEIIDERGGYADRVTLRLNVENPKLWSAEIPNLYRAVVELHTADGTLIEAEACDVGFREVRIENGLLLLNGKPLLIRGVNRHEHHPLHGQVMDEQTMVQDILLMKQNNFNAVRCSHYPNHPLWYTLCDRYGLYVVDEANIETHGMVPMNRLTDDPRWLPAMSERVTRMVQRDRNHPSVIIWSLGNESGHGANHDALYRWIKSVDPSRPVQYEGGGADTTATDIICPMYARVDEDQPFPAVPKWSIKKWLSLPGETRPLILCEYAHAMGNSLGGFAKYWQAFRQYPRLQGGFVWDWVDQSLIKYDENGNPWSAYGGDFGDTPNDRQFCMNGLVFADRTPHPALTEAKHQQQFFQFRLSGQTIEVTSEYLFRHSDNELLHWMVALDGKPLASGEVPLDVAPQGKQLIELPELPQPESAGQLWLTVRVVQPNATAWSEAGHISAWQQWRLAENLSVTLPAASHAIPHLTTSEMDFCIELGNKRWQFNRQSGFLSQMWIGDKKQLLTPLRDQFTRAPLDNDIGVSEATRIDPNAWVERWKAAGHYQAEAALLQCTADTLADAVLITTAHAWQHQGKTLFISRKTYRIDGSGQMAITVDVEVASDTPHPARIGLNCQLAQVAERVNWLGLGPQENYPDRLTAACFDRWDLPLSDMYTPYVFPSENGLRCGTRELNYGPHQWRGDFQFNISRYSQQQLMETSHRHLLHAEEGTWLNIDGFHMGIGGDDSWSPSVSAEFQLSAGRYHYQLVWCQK
Sequence of Photoreceptor-specific nuclear receptor (Q9Y5X4 whole entry, the tested form may be a part): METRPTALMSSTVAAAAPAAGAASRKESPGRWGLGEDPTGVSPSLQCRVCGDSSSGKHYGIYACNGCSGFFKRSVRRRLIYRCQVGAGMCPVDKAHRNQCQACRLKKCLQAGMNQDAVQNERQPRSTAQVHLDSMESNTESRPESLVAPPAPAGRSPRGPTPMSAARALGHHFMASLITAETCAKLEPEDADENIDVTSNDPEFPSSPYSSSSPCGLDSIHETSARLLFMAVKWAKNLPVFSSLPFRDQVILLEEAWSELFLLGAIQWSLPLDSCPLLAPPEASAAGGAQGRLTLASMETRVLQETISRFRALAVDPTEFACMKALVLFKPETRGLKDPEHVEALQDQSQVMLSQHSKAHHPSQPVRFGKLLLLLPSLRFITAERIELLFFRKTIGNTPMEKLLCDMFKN
Sequence of Paired box protein Pax-8 (Q06710 whole entry): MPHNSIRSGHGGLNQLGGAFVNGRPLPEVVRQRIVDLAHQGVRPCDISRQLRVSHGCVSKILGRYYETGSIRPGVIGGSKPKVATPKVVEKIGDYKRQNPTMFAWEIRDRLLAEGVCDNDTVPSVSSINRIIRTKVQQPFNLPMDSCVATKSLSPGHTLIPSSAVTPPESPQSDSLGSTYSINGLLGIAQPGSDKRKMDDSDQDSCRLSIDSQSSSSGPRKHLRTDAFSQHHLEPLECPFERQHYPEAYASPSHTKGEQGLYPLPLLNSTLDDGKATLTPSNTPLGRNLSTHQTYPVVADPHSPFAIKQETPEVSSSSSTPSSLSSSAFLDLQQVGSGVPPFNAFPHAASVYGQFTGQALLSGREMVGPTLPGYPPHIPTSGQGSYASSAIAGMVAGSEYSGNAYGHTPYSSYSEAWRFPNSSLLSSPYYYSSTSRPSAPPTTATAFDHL

Fc1ccc(N2N=C(c3cccs3)CC2c2ccco2)c(F)c1 (stereo not drawn)
IC50 [1]: 107 µM (active)

COC(=O)c1ccc(/C=C2/SC(=S)N(CCCC(=O)Nc3ccc(O)cc3)C2=O)cc1
IC50 [2]: 35.4 µM (active) | IC50 [3]: > 50 µM (inactive)

O=C(NC1CCS(=O)(=O)C1)c1cccc(Br)c1 (stereo not drawn)
AC50 [4]: 8.94 µM (active)

CC1CCN(C(=O)C2CCN(S(=O)(=O)c3ccc(-n4cnnn4)cc3)CC2)CC1
AC50 [5]: 22.8 µM (active)

COc1cccc(C(=O)CC(C#N)c2ccc(F)cc2)c1 (stereo not drawn)
AC50 [4]: 6.55 µM (active)

O=C1N=C(NS(=O)(=O)Cc2ccccc2)S/C1=C/c1cccc([N+](=O)[O-])c1
IC50 [1]: 50.2 µM (active)

CCOC(=O)N1CCN(c2ccc(Cl)cc2)CC1
AC50 [4]: 7.18 µM (active)

CNC(=O)c1nc[nH]c1C(=O)N[C@@H](CC(C)C)C(=O)OC(C)(C)C
IC50 [1]: 39.3 µM (active)

C/C=C\C=C/C(=O)Nc1cccc(C2=NOC3(C2)C[C@@H](C(N)=O)N(C(=O)/C=C/C=C\C)C3)c1 (stereo partly drawn)
IC50 [2]: 10.1 µM (active) | IC50 [3]: 4.01 µM (active)

COc1ccc(/C=C2/CCC(CN3CCOCC3)C2=O)cc1 (stereo not drawn)
IC50 [6]: 21.1 µM (inactive) | IC50 [7]: > 66.6 µM (inactive) | AC50 [8]: 0.902 µM (active) | IC50 [9]: > 47.1 µM (inactive) | EC50 [10]: > 53 µM (inactive)

CN(Cc1ccccc1)C(=O)Cn1sc2ccccc2c1=O
IC50 [11]: 7.87 µM (active)

Cc1ccc(C(=O)Nc2cc(Cl)ccc2C(=O)O)cc1C
IC50 [11]: 10.7 µM (active)

O=C(Nc1cc(Cl)ccc1C(=O)O)c1ccc2ccccc2c1
IC50 [11]: 5.41 µM (active)

CC(=O)O/C(=C1\CC2C3CC=C4CC(OC(C)=O)CCC4(C)C3CCC2(C)C1=O)C(F)(F)F (stereo not drawn)
IC50 [6]: > 66.6 µM (inactive) | IC50 [7]: > 66.6 µM (inactive)

CC(=O)Nc1ccc(Sc2ccc([N+](=O)[O-])o2)cc1
IC50 [6]: > 66.6 µM (inactive) | IC50 [7]: > 66.6 µM (inactive) | AC50 [12]: 2.15 µM (active) | AC50 [13]: 20.6 µM (active) | AC50 [14]: 11.2 µM (active) | IC50 [15]: 2.72 µM (active) | AC50 [16]: 7.36 µM (active) | AC50 [17]: 37 µM (active) | AC50 [18]: 13.8 µM (active) | AC50 [19]: 26.4 µM (active) | AC50 [20]: 22.7 µM (active) | AC50 [21]: 7.13 µM (active)
